The values that follow come from patent US11000033B2, “Ketone or oxime compound, and herbicide” (NISSAN CHEMICAL CORPORATION, priority 2014, dated 2021).

Type in all cases: in vivo
Data set [1] concerns Veronica persica. The data set can be described thus: Test Example 5: herbicidal effect by foliage application, plastic box (symbol R). Particulars: 320 g/ha, 3 weeks after application. Put shortly:
(§1)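 Visual herbicidal score, taken three weeks post-application, of seedlings sprayed on the foliage with water-diluted emulsion at a predetermined amount; plants were 14 days old, greenhouse-raised at 25° C. to 30° C.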

Data set [2] has as its system soybean. The data set can be described thus: Test Example 4: effect on crop by soil treatment (symbol d). Particulars: 320 g/ha. Put shortly:
(§2)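 Seeds were sown in spots on sterilized diluvial soil in a plastic box and covered with about 1.5 cm of soil. Plants were then grown in a greenhouse at 25° C. to 30° C.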

Data set [3] relates to Alopecurus myosuroides. The experiment in a line: Test Example 4: herbicidal effect by soil treatment (symbol J). Particulars: 320 g/ha. A digest of the protocol: (§3)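 Seeds were sown in sterilized diluvial soil, covered with about 1.5 cm of soil, and the soil surface was sprayed with a water-diluted emulsion of the compound at a predetermined rate. Plants grew in a greenhouse at 25° C. to 30° C.; effects were scored visually 3 weeks after application.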

The subject of data set [4] is Amaranthus retroflexus. The experiment in a line: Test Example 5: herbicidal effect by foliage application, plastic box (symbol N). Particulars: 320 g/ha, 3 weeks after application. Put shortly:
as §1

In data set [5] the test system is Alopecurus myosuroides. The data set can be described thus: Test Example 5: herbicidal effect by foliage application, plastic box (symbol J). Particulars: 320 g/ha, 3 weeks after application. Put shortly:
as §1

Data set [6] has as its system Avena fatua. The data set can be described thus: Test Example 5: herbicidal effect by foliage application, plastic box (symbol I). To be noted: 320 g/ha, 3 weeks after application. A digest of the protocol:
as §1

Data set [7] concerns wheat. The experiment in a line: Test Example 4: effect on crop by soil treatment (symbol e). To be noted: 320 g/ha. Put shortly:
as §2

Data set [8] has as its system Veronica persica. The experiment in a line: Test Example 4: herbicidal effect by soil treatment (symbol R). To be noted: 320 g/ha. Put shortly:
as §3

Data set [9] deals with Cyperus difformis. The experiment in a line: Test Example 3: herbicidal effect by foliage application, Wagner pot (symbol E). Particulars: application herbicide amount 320 g/ha. A digest of the protocol: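 Weeds and rice were sown in alluvial soil under 0.1–0.5 cm of standing water and grown for 14 days in a 25–30 °C greenhouse. An emulsion of the compound, diluted in water to a set dose, was sprayed evenly onto the foliage. Effect was scored against fixed criteria 3 weeks after treatment.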

In data set [10] the test system is Apera spica-venti. The data set can be described thus: Test Example 4: herbicidal effect by soil treatment (symbol L). Particulars: 320 g/ha. A digest of the protocol: as §3
For data set [11], the system named is corn. The experiment in a line: Test Example 4: effect on crop by soil treatment (symbol c). Particulars: 320 g/ha. Put shortly:
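Greenhouse culture at 25° C. to 30° C. followed sowing of seed in spots on sterilized diluvial soil with a soil cover close to 1.5 cm thick.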

The subject of data set [12] is soybean. The data set can be described thus: Test Example 5: effect on crop by foliage application, plastic box (symbol d). To be noted: 320 g/ha, 3 weeks after application. Put shortly: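 Seeds were sown in spots in sterilized diluvial soil held in a plastic box 21 cm × 13 cm × 7 cm deep, covered with about 1.5 cm of soil, and grown in a greenhouse at 25° C. to 30° C.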

The subject of data set [13] is Setaria viridis. The experiment in a line: Test Example 5: herbicidal effect by foliage application, plastic box (symbol G). To be noted: 320 g/ha, 3 weeks after application. Put shortly: as §1
For data set [14], the system named is Lolium multiflorum Lam. The data set can be described thus: Test Example 4: herbicidal effect by soil treatment (symbol K). To be noted: 320 g/ha. Put shortly:
as §3

In data set [15] the test system is Echinochloa oryzacola Vasing. The data set can be described thus: Test Example 1: herbicidal activity, application before weed generation in submerged conditions (symbol A). To be noted: application herbicide amount 320 g/ha. A digest of the protocol:
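Compound emulsion was diluted to a set herbicide amount and applied to the water surface on the sowing day, into submerged (4 cm) alluvial-soil pots sown with mixed weed seeds and transplanted 2.5-leaf rice. Pots were held in a 25–30 °C greenhouse, and weeds were scored 0–5 by herbicidal ratio after 3 weeks.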

Data set [16] relates to Galium spurium. The data set can be described thus: Test Example 4: herbicidal effect by soil treatment (symbol Q). To be noted: 320 g/ha. Put shortly: as §3
Data set [17] deals with rice. The experiment in a line: Test Example 4: effect on crop by soil treatment (symbol b). Particulars: 320 g/ha. A digest of the protocol: as §2
The test system of data set [18] is Lolium multiflorum Lam. The data set can be described thus: Test Example 5: herbicidal effect by foliage application, plastic box (symbol K). To be noted: 320 g/ha, 3 weeks after application. Put shortly:
as §1

In data set [19] the test system is Setaria viridis. The data set can be described thus: Test Example 4: herbicidal effect by soil treatment (symbol G). Particulars: 320 g/ha. A digest of the protocol:
as §3

On to `CON=C(C)CC1CC(OC(=O)N(C)CCCCCl)=C(c2c(C)cc(C)cc2C)C1=O` (stereo not drawn) [1-126], for which the “R: Veronica persica, herbicidal effect (criteria 0-5)” value (“R: Veronica persica … (criteria 0-5)” for short) in [1] is given as 0 (Herbicidal ratio of 5% or lower (almost no effect)). Also, the “d: soybean, effect grade on crop” value in [2] is 0 (Herbicidal ratio of 5% or lower (almost no effect)). Further, the “J: Alopecurus myosuroides, herbicidal effect grade” value in [3] was 3 (Herbicidal ratio of 40% or higher and lower than 70%). Moreover, the “N: Amaranthus retroflexus, herbicidal effect (criteria 0-5)” value (shortened to “N: Amaranthus retroflexus”) in data set [4] is reported as 0 (Herbicidal ratio of 5% or lower (almost no effect)). Also, the “J: Alopecurus myosuroides, herbicidal effect (criteria 0-5)” value in data set [5] is given as 5 (Herbicidal ratio of 90% or more (almost completely withered)). In addition, the “I: Avena fatua, herbicidal effect (criteria 0-5)” value (shortened to “I: Avena fatua, herbicidal effect”) in [6] was 3 (Herbicidal ratio of 40% or higher and lower than 70%). Moreover, in [7], the “e: wheat, effect grade on crop” value is given as 0 (Herbicidal ratio of 5% or lower (almost no effect)). Further, the “R: Veronica persica, herbicidal effect grade” value in data set [8] is reported as 0 (Herbicidal ratio of 5% or lower (almost no effect)). For the same compound, the “herbicidal effect on E, grade 0-5” value in data set [9] was 2 (Herbicidal ratio of 20% or higher and lower than 40%). In data set [10], the “L: Apera spica-venti, herbicidal effect grade” value (“L: Apera spica-venti” for short) is recorded as 0 (Herbicidal ratio of 5% or lower (almost no effect)). Further, in data set [11], the “c: corn, effect grade on crop” value was 0 (Herbicidal ratio of 5% or lower (almost no effect)). The “d: soybean, effect on crop (criteria 0-5)” value (shortened to “d: soybean, effect on crop”) in [12] is reported as 0 (Herbicidal ratio of 5% or lower (almost no effect)). Further, the “G: Setaria viridis, herbicidal effect (criteria 0-5)” value (from here on “G: Setaria viridis … (criteria 0-5)”) in data set [13] is 4 (Herbicidal ratio of 70% or higher and lower than 90%). Moreover, the “K: Lolium multiflorum Lam., herbicidal effect grade” value in [14] is 4 (Herbicidal ratio of 70% or higher and lower than 90%). In addition, the “Herbicidal effect grade, A: Echinochloa oryzacola Vasing.” value in [15] is 4 (Herbicidal ratio of 70% or higher and lower than 90%). Further, the “Q: Galium spurium, herbicidal effect grade” value (from here on “Q: Galium spurium”) in data set [16] was 0 (Herbicidal ratio of 5% or lower (almost no effect)). Besides, in data set [17], the “b: directly sowed rice plant, effect grade on crop” value (“b: directly sowed rice plant” below) was 0 (Herbicidal ratio of 5% or lower (almost no effect)). The “K: Lolium multiflorum Lam., herbicidal effect (criteria 0-5)” value in data set [18] is listed as 5 (Herbicidal ratio of 90% or more (almost completely withered)). For the same compound, in [19], the “G: Setaria viridis, herbicidal effect grade” value was 0 (Herbicidal ratio of 5% or lower (almost no effect)).
For the compound `CC(CC1CC(O)=C(c2c(C)cc(C)cc2C)C1=O)=NOCc1ccccc1[N+](=O)[O-]` (stereo not drawn) [1-119], the “R: Veronica persica … (criteria 0-5)” value in [1] is 3 (Herbicidal ratio of 40% or higher and lower than 70%). Further, in [2], the “d: soybean, effect grade on crop” value is listed as 0 (Herbicidal ratio of 5% or lower (almost no effect)). Moreover, the “J: Alopecurus myosuroides, herbicidal effect grade” value in [3] is 4 (Herbicidal ratio of 70% or higher and lower than 90%). Further, the “N: Amaranthus retroflexus” value in data set [4] was 0 (Herbicidal ratio of 5% or lower (almost no effect)). In addition, in data set [5], the “J: Alopecurus myosuroides, herbicidal effect (criteria 0-5)” value is 5 (Herbicidal ratio of 90% or more (almost completely withered)). The “I: Avena fatua, herbicidal effect” value in data set [6] is recorded as 5 (Herbicidal ratio of 90% or more (almost completely withered)). Besides, the “e: wheat, effect grade on crop” value in [7] was 0 (Herbicidal ratio of 5% or lower (almost no effect)). For the same compound, the “R: Veronica persica, herbicidal effect grade” value in data set [8] is listed as 0 (Herbicidal ratio of 5% or lower (almost no effect)). Also, the “herbicidal effect on E, grade 0-5” value in data set [9] was 0 (Herbicidal ratio of 5% or lower (almost no effect)). Moreover, the “L: Apera spica-venti” value in [10] was 5 (Herbicidal ratio of 90% or more (almost completely withered)). Moreover, the “c: corn, effect grade on crop” value in data set [11] is recorded as 0 (Herbicidal ratio of 5% or lower (almost no effect)). In addition, the “d: soybean, effect on crop” value in data set [12] is 0 (Herbicidal ratio of 5% or lower (almost no effect)). The “G: Setaria viridis … (criteria 0-5)” value in data set [13] was 5 (Herbicidal ratio of 90% or more (almost completely withered)). In data set [14], the “K: Lolium multiflorum Lam., herbicidal effect grade” value is recorded as 5 (Herbicidal ratio of 90% or more (almost completely withered)). In data set [15], the “Herbicidal effect grade, A: Echinochloa oryzacola Vasing.” value is 1 (Herbicidal ratio of 5% or higher and lower than 20%). For the same compound, the “Q: Galium spurium” value in data set [16] is 0 (Herbicidal ratio of 5% or lower (almost no effect)). In addition, the “b: directly sowed rice plant” value in data set [17] was 5 (Herbicidal ratio of 90% or more (almost completely withered)). Also, the “K: Lolium multiflorum Lam., herbicidal effect (criteria 0-5)” value in data set [18] is 5 (Herbicidal ratio of 90% or more (almost completely withered)). Besides, the “G: Setaria viridis, herbicidal effect grade” value in data set [19] was 4 (Herbicidal ratio of 70% or higher and lower than 90%).
On to `CON=C(C)CON=C(C)CC1CC(O)=C(c2c(C)cc(C)cc2C)C1=O` (stereo not drawn) [1-105], for which the “R: Veronica persica … (criteria 0-5)” value in data set [1] was 3 (Herbicidal ratio of 40% or higher and lower than 70%). Moreover, the “d: soybean, effect grade on crop” value in data set [2] is reported as 0 (Herbicidal ratio of 5% or lower (almost no effect)). Further, the “J: Alopecurus myosuroides, herbicidal effect grade” value in data set [3] is given as 5 (Herbicidal ratio of 90% or more (almost completely withered)). In data set [4], the “N: Amaranthus retroflexus” value is reported as 0 (Herbicidal ratio of 5% or lower (almost no effect)). For the same compound, the “J: Alopecurus myosuroides, herbicidal effect (criteria 0-5)” value in [5] is 5 (Herbicidal ratio of 90% or more (almost completely withered)). The “I: Avena fatua, herbicidal effect” value in data set [6] was 5 (Herbicidal ratio of 90% or more (almost completely withered)). The “e: wheat, effect grade on crop” value in [7] was 3 (Herbicidal ratio of 40% or higher and lower than 70%). In addition, the “R: Veronica persica, herbicidal effect grade” value in data set [8] is on record as 0 (Herbicidal ratio of 5% or lower (almost no effect)). Further, the “herbicidal effect on E, grade 0-5” value in data set [9] is 5 (Herbicidal ratio of 90% or more (almost completely withered)). In addition, in data set [10], the “L: Apera spica-venti” value is listed as 5 (Herbicidal ratio of 90% or more (almost completely withered)). Also, the “c: corn, effect grade on crop” value in data set [11] is 1 (Herbicidal ratio of 5% or higher and lower than 20%). In [12], the “d: soybean, effect on crop” value was 1 (Herbicidal ratio of 5% or higher and lower than 20%). The “G: Setaria viridis … (criteria 0-5)” value in data set [13] was 5 (Herbicidal ratio of 90% or more (almost completely withered)). The “K: Lolium multiflorum Lam., herbicidal effect grade” value in data set [14] was 5 (Herbicidal ratio of 90% or more (almost completely withered)). For the same compound, in [15], the “Herbicidal effect grade, A: Echinochloa oryzacola Vasing.” value is recorded as 5 (Herbicidal ratio of 90% or more (almost completely withered)). For the same compound, in [16], the “Q: Galium spurium” value was 0 (Herbicidal ratio of 5% or lower (almost no effect)). For the same compound, the “b: directly sowed rice plant” value in data set [17] is 5 (Herbicidal ratio of 90% or more (almost completely withered)). Moreover, the “K: Lolium multiflorum Lam., herbicidal effect (criteria 0-5)” value in data set [18] was 5 (Herbicidal ratio of 90% or more (almost completely withered)). Further, the “G: Setaria viridis, herbicidal effect grade” value in data set [19] was 5 (Herbicidal ratio of 90% or more (almost completely withered)).
